In PubChem BioAssay AID248 (DTP/NCI, 2004):
Where “and” joins values, the source holds several entries; their conditions need not be identical. Equal entries are not always repeated. Inconclusive results and toxic doses are left out.

System: L1210 leukemia ip in BDF1 mice, survival T/C
Assay: NCI In Vivo Anticancer Drug Screen. Data for tumor model L1210 Leukemia (intraperitoneal) in B6D2F1 (BDF1) mice
Details: endpoint: mean survival time, higher = longer survival
Procedure, shortened: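 Antitumor effect is assessed in tumor-bearing animals. Survival in the compound arm is compared with a vehicle-dosed control arm and expressed as their quotient.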

[1] = dose: 100.0 mg/kg/injection, schedule: Q01DX009 (ip), vehicle: saline with Tween-80
[2] = dose: 100.0 mg/kg/injection, schedule: Q04DX003 (ip), vehicle: saline with Tween-80
[3] = dose: 200.0 mg/kg/injection, schedule: Q01DX009 (ip), vehicle: saline with Tween-80
[4] = dose: 200.0 mg/kg/injection, schedule: Q04DX003 (ip), vehicle: saline with Tween-80
[5] = dose: 400.0 mg/kg/injection, schedule: Q01DX009 (ip), vehicle: saline with Tween-80
[6] = dose: 400.0 mg/kg/injection, schedule: Q04DX003 (ip), vehicle: saline with Tween-80
[7] = dose: 50.0 mg/kg/injection, schedule: Q01DX001 (ip), vehicle: saline
[8] = dose: 100.0 mg/kg/injection, schedule: Q01DX001 (ip), vehicle: saline
[9] = dose: 200.0 mg/kg/injection, schedule: Q01DX001 (ip), vehicle: saline
[10] = dose: 400.0 mg/kg/injection, schedule: Q01DX001 (ip), vehicle: saline
[11] = dose: 100.0 mg/kg/injection, schedule: Q01DX001 (ip), vehicle: carboxymethylcellulose (CMC)
[12] = dose: 200.0 mg/kg/injection, schedule: Q01DX001 (ip), vehicle: carboxymethylcellulose (CMC)
[13] = dose: 400.0 mg/kg/injection, schedule: Q01DX001 (ip), vehicle: carboxymethylcellulose (CMC)
[14] = dose: 100.0 mg/kg/injection, schedule: Q01DX009 (ip), vehicle: Klucel (hydroxypropylcellulose) (HPC)
[15] = dose: 200.0 mg/kg/injection, schedule: Q01DX009 (ip), vehicle: Klucel (hydroxypropylcellulose) (HPC)
[16] = dose: 400.0 mg/kg/injection, schedule: Q01DX009 (ip), vehicle: Klucel (hydroxypropylcellulose) (HPC)
[17] = dose: 12.5 mg/kg/injection, schedule: Q01DX009 (ip), vehicle: saline
[18] = dose: 25.0 mg/kg/injection, schedule: Q01DX009 (ip), vehicle: saline

For `OCCOc1c(Cl)cc(Cl)cc1Cl`, the T/C (dose: 50.0 mg/kg/injection, schedule: Q01DX009 (ip), vehicle: saline with Tween-80) was 100 % of control, the T/C [1] was 94 % of control and 100 % of control and the T/C [2] was 93 % of control. For the same molecule, the T/C [3] was 100 % of control, the T/C [4] was 90 % of control and the T/C [5] was 93 % of control. The T/C [6] was 111 % of control.

In the case of `CCCCCCCCC[As](=O)(O)CCCCCCCCC`, the T/C [7] is reported as 101 % of control, the T/C [8] is reported as 98 % of control and the T/C [9] is reported as 98 % of control. The T/C [10] was 101 % of control.

`O=C(/C(=C/c1ccc(F)cc1)c1ccccc1)c1ccc(O)cc1` was tested, and the T/C [11] was 92 % of control, the T/C [12] was 110 % of control and the T/C [13] was 94 % of control.

`O=C(Nc1ccccc1F)N(CCO)C1CCCCC1` was tested, and the T/C [14] was 101 % of control, the T/C [15] was 106 % of control and the T/C [16] was 101 % of control.

`CSc1nc(N)c(N=Nc2ccc(S(=O)(=O)Nc3nnc(C)s3)cc2)c(=O)[nH]1` was tested, and the T/C [11] was 95 % of control, the T/C [12] was 97 % of control and the T/C [13] was 101 % of control.

`O=C(NC(C(O)CO)C(OC(=O)c1ccccc1)C(O)CO)c1ccccc1` (stereo unspecified) was tested, and the T/C [1] was 105 % of control, the T/C [3] was 94 % of control and the T/C [5] was 94 % of control.

For `CSc1ccc(OC(=O)Nc2ccccc2C)cc1C`, the T/C (dose: 100.0 mg/kg/injection, schedule: Q04DX002 (ip), vehicle: saline with Tween-80) was 100 % of control, the T/C (dose: 200.0 mg/kg/injection, schedule: Q04DX002 (ip), vehicle: saline with Tween-80) was 100 % of control and the T/C (dose: 400.0 mg/kg/injection, schedule: Q04DX002 (ip), vehicle: saline with Tween-80) was 118 % of control.

`CCCCNC(=O)N(C1CCCCC1)C1CCCCC1` was tested, and the T/C [14] was 103 % of control, the T/C [15] was 92 % of control and the T/C [16] was 92 % of control.

`c1ccc2sc(SSc3nc4ccccc4s3)nc2c1` was tested, and the T/C [7] was 96 % of control, the T/C [8] was 98 % of control and the T/C [14] was 86 % of control. For the same molecule, the T/C (dose: 100.0 mg/kg/injection, schedule: Q04DX003 (ip), vehicle: Klucel (hydroxypropylcellulose) (HPC)) was 97 % of control, the T/C [9] was 92 % of control and the T/C [15] was 96 % of control. The T/C (dose: 200.0 mg/kg/injection, schedule: Q04DX003 (ip), vehicle: Klucel (hydroxypropylcellulose) (HPC)) was 94 % of control, the T/C [10] was 104 % of control and the T/C [16] was 90 % of control. For the same molecule, the T/C (dose: 400.0 mg/kg/injection, schedule: Q04DX003 (ip), vehicle: Klucel (hydroxypropylcellulose) (HPC)) was 90 % of control.

`CC(C)=NNC(N)=O` was tested, and the T/C [17] was 97 % of control, the T/C [18] was 100 % of control and the T/C (dose: 25.0 mg/kg/injection, schedule: Q04DX002 (ip), vehicle: saline) was 98 % of control. For the same molecule, the T/C (dose: 50.0 mg/kg/injection, schedule: Q01DX009 (ip), vehicle: saline) was 94 % of control and the T/C (dose: 50.0 mg/kg/injection, schedule: Q04DX002 (ip), vehicle: saline) was 103 % of control.

`O=C(Nc1nccs1)C(Cl)Cl` was tested, and the T/C [11] was 103 % of control, the T/C (dose: 177.0 mg/kg/injection, schedule: Q01DX001 (ip), vehicle: Klucel (hydroxypropylcellulose) (HPC)) was 105 % of control and the T/C [12] was 118 % of control. For the same molecule, the T/C (dose: 266.0 mg/kg/injection, schedule: Q01DX001 (ip), vehicle: Klucel (hydroxypropylcellulose) (HPC)) was 107 % of control, the T/C (dose: 400.0 mg/kg/injection, schedule: Q01DX001 (ip), vehicle: Klucel (hydroxypropylcellulose) (HPC)) was 105 % of control and the T/C [13] was 249 % of control. For the same molecule, the T/C (dose: 600.0 mg/kg/injection, schedule: Q01DX001 (ip), vehicle: Klucel (hydroxypropylcellulose) (HPC)) was 105 % of control.

`CCC(CC)COC(=O)CI` was tested, and the T/C (dose: 5.0 mg/kg/injection, schedule: Q01DX001 (ip), vehicle: saline) was 100 % of control, the T/C (dose: 10.0 mg/kg/injection, schedule: Q01DX001 (ip), vehicle: saline) was 100 % of control and the T/C (dose: 20.0 mg/kg/injection, schedule: Q01DX001 (ip), vehicle: saline) was 100 % of control. The T/C (dose: 40.0 mg/kg/injection, schedule: Q01DX001 (ip), vehicle: saline) was 100 % of control and the T/C (dose: 80.0 mg/kg/injection, schedule: Q01DX001 (ip), vehicle: saline) was 100 % of control.

With `CN(N=O)C(=O)NCCCNC(=O)N(C)N=O` the T/C (dose: 6.25 mg/kg/injection, schedule: Q01DX Z (ip), vehicle: carboxymethylcellulose (CMC)) was 118 % of control, the T/C (dose: 12.5 mg/kg/injection, schedule: Q01DX Z (ip), vehicle: carboxymethylcellulose (CMC)) was 101 % of control and the T/C (dose: 25.0 mg/kg/injection, schedule: Q01DX Z (ip), vehicle: carboxymethylcellulose (CMC)) was 112 % of control. The T/C (dose: 100.0 mg/kg/injection, schedule: Q01DX Z (ip), vehicle: carboxymethylcellulose (CMC)) was 200 % of control, the T/C (dose: 150.0 mg/kg/injection, schedule: Q01DX001 (ip), vehicle: carboxymethylcellulose (CMC)) was 120 % of control and the T/C (dose: 150.0 mg/kg/injection, schedule: Q01DX001 (ip), vehicle: saline) was 102 % of control. The T/C (dose: 250.0 mg/kg/injection, schedule: Q01DX Z (ip), vehicle: carboxymethylcellulose (CMC)) was 121 % of control, the T/C (dose: 300.0 mg/kg/injection, schedule: Q01DX001 (ip), vehicle: carboxymethylcellulose (CMC)) was 123 % of control and the T/C (dose: 300.0 mg/kg/injection, schedule: Q01DX001 (ip), vehicle: saline) was 112 % of control. The T/C (dose: 300.0 mg/kg/injection, schedule: Q01DX Z (ip), vehicle: carboxymethylcellulose (CMC)) was 90 % of control and the T/C (dose: 600.0 mg/kg/injection, schedule: Q01DX001 (ip), vehicle: saline) was 109 % of control.

`O=C(Nc1ccccc1-c1ccc([N+](=O)[O-])cc1)c1cccc2ccccc12` was tested, and the T/C [4] was 87 % of control and the T/C [6] was 90 % of control.

For `CC/C(C)=N/NCCO`, the T/C (dose: 12.5 mg/kg/injection, schedule: Q01DX001 (ip), vehicle: saline) was 114 % of control, the T/C [17] was 93 % of control and the T/C (dose: 25.0 mg/kg/injection, schedule: Q01DX001 (ip), vehicle: saline) was 101 % of control. The T/C [18] was 97 % of control and the T/C [7] was 103 % of control and 104 % of control.

With `Cc1ccc(S(=O)(=O)N(CCCc2c(Cl)nc(N)nc2Cc2ccccc2)c2ccccc2)cc1` the T/C (dose: 100.0 mg/kg/injection, schedule: Q04DX003 (ip), vehicle: gum acacia) was 97 % of control, the T/C (dose: 200.0 mg/kg/injection, schedule: Q04DX003 (ip), vehicle: gum acacia) was 92 % of control and the T/C (dose: 400.0 mg/kg/injection, schedule: Q04DX003 (ip), vehicle: gum acacia) was 94 % of control.

With `CC(=O)Nc1ccc2c(=O)cc[nH]c2n1` the T/C [7] was 89 % of control, the T/C [8] was 93 % of control and the T/C [9] was 106 % of control. The T/C [10] was 95 % of control.

For `COc1cc(C(=O)C[n+]2ccccc2)ccc1O`, the T/C [2] was 93 % of control and the T/C [4] was 93 % of control.

`CCOC(=O)c1ccc(NC(=O)Nc2nccs2)cc1` was tested, and the T/C (dose: 88.0 mg/kg/injection, schedule: Q01DX009 (ip), vehicle: saline with Tween-80) was 113 % of control, the T/C [1] was 123 % of control and the T/C (dose: 132.0 mg/kg/injection, schedule: Q01DX009 (ip), vehicle: saline with Tween-80) was 109 % of control. For the same molecule, the T/C [3] was 122 % of control and the T/C (dose: 300.0 mg/kg/injection, schedule: Q01DX009 (ip), vehicle: saline with Tween-80) was 124 % of control.

For `CCOC(=O)c1ccc(NC(=O)C(Br)C(Br)C(=O)O)cc1` (stereo unspecified), the T/C [1] was 94 % of control, the T/C [2] was 101 % of control and the T/C [3] was 94 % of control. The T/C [4] was 100 % of control, the T/C [5] was 97 % of control and the T/C [6] was 101 % of control.

For `CC(=O)Nc1cccc(Br)c1`, the T/C (dose: 50.0 mg/kg/injection, schedule: Q01DX009 (ip), vehicle: Klucel (hydroxypropylcellulose) (HPC)) was 101 % of control, the T/C [14] was 106 % of control and 90 % of control and the T/C [15] was 95 % of control and 102 % of control.

With `C1O[C@@H]1[C@@H]1CO1` the T/C (dose: 10.5 mg/kg/injection, schedule: Q01DX015 (ip), vehicle: saline) was 110 % of control, the T/C (dose: 18.0 mg/kg/injection, schedule: Q01DX015 (ip), vehicle: saline) was 110 % of control and the T/C (dose: 44.0 mg/kg/injection, schedule: Q01DX001 (ip), vehicle: saline) was 111 % of control and 116 % of control. The T/C (dose: 66.0 mg/kg/injection, schedule: Q01DX001 (ip), vehicle: saline) was 150 % of control, the T/C [8] was 173 % of control and the T/C (dose: 100.0 mg/kg/injection, schedule: Q01DX010 (ip), vehicle: water) was 167 % of control. The T/C (dose: 200.0 mg/kg/injection, schedule: Q01DX010 (ip), vehicle: water) was 186 % of control, the T/C (dose: 400.0 mg/kg/injection, schedule: Q01DX010 (ip), vehicle: water) was 189 % of control and the T/C (dose: 600.0 mg/kg/injection, schedule: Q01DX010 (ip), vehicle: water) was 157 % of control.
